# According to article PMC8041284, “Tunable Methacrylamides for Covalent Ligand Directed Release Chemistry” (Journal of the American Chemical Society, 2021):
# Like-named read-outs stand apart in the source and are kept apart here.
# Columns and labels:
# BTK [1] = biological target: T1, BTK (Homo sapiens, UniProt Q06187)
# BTK [2] = biological target: T1, BTK; test: biochemical
# [3] = 0.75 uM BTK, […] probe 3l, 15 min preincubation; 10 µM; inhibitor
# [4] = 0.75 uM BTK, […] probe 3l, 15 min preincubation, 10 µM, inhibitor, BTK inhibition (%)
# [5] = read-out: BTK inhibition (%), 0.75 uM BTK, […] probe 3l, 15 min preincubation
# T1 sequence (Q06187 402-655 limits assumed): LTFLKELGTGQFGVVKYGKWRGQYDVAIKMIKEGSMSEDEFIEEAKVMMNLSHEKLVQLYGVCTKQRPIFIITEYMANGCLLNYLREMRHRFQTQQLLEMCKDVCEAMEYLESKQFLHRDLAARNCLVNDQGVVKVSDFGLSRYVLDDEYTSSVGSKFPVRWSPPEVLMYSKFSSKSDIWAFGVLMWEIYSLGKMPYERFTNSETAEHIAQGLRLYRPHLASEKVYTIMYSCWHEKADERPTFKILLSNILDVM
smiles,measurement,setting,value
C=C(C)[C@H]1Cc2c(ccc3c2O[C@@H]2COc4cc(OC)c(OC)cc4[C@@H]2C3=O)O1 [PCM-0214933],BTK inhibition (%),BTK [1]; [3],6.2%
CC1=C(O)C(=O)C=C2C1=CC=C1[C@@]2(C)CC[C@@]2(C)[C@@H]3C[C@](C)(C(=O)O)CC[C@]3(C)CC[C@]12C [PCM-0214611],BTK inhibition (%),BTK [1]; [3],67.7%
CC[C@H]1OC(=O)[C@H](C)[C@@H](O[C@H]2C[C@@](C)(OC)[C@@H](O)[C@H](C)O2)[C@H](C)[C@@H](O[C@@H]2O[C@H](C)C[C@H](N(C)C)[C@H]2O)[C@](C)(O)C[C@@H](C)C(=O)[C@H](C)[C@@H](O)[C@]1(C)O [PCM-0214693],BTK inhibition (%),BTK [1]; [4],5.4%
CN[C@H]1[C@H](O)[C@H](O[C@@H]2[C@@H](O)[C@H](O[C@H]3O[C@H](C(C)O)[C@@H](O)[C@H](O)[C@H]3N)[C@@H](N)C[C@H]2N)OC[C@@]1(C)O (some centres unmarked) [PCM-0215175],BTK inhibition (%),BTK [1]; 10 µM; inhibitor,6%
O=C(/C=C/c1ccccc1)OC[C@H]1O[C@@H](O[C@@H]2OC=C[C@H]3[C@H](O)[C@@H]4O[C@]4(CO)[C@@H]23)[C@H](O)[C@@H](O)[C@@H]1O [PCM-0214975],BTK inhibition (%),BTK [1]; [3],-1.6%
O=C(O)O [PCM-0216262],BTK inhibition (%),BTK [1]; [4],-6.2%
NC(=O)c1ncn([C@@H]2O[C@H](CO)[C@@H](O)[C@H]2O)n1 [PCM-0065438],BTK inhibition (%),BTK [1]; [3],-11.7%
CC(C)C1=CC(=O)[C@@](C)([C@H]2[C@H](O)C[C@@]3(C)[C@@H]4CC=C5[C@@H](CC[C@@H](O[C@@H]6OC[C@@H](O)[C@H](O)[C@H]6O[C@@H]6O[C@@H](C)[C@H](O)[C@@H](O)[C@H]6O)C5(C)C)[C@]4(C)C(=O)C[C@]23C)O1 [PCM-0216419],BTK inhibition (%),BTK [1]; 10 µM; inhibitor,2.3%
CC(C)[C@]12O[C@H]1[C@@H]1O[C@]13[C@]1(O[C@H]1C[C@H]1C4=C(CC[C@@]13C)C(=O)OC4)[C@@H]2O [PCM-0214731],BTK inhibition (%),BTK [1]; [3],6.2%
CC(C(=O)O)c1cccc(Oc2ccccc2)c1 (centres unmarked) [PCM-0214813],BTK inhibition (%),BTK [1]; [4],4.8%
C=C[C@]1(C)C[C@@H](OC(=O)CSCCN(CC)CC)[C@]2(C)[C@H](C)CC[C@]3(CCC(=O)[C@H]32)[C@@H](C)[C@@H]1O [PCM-0215106],BTK inhibition (%),BTK [1]; [4],-8.5%
CC[C@H]1OC(=O)[C@H](C)[C@@H](O[C@H]2C[C@@](C)(OC)[C@@H](O)[C@H](C)O2)[C@H](C)[C@@H](O[C@@H]2O[C@H](C)C[C@H](N(C)C)[C@H]2O)[C@](C)(O)C[C@@H](C)CN(C)[C@H](C)[C@@H](O)[C@]1(C)O [PCM-0216649],BTK inhibition (%),BTK [1]; [4],11.7%
COP(=O)(OC)SCn1c(=O)oc2cc(Cl)cnc21 [PCM-0215999],BTK inhibition (%),BTK [1]; 10 µM; inhibitor,-2.3%
COc1ccc(/C=C/c2cc(OC)cc(OC)c2)cc1 [PCM-0214992],BTK inhibition (%),BTK [1]; 10 µM; inhibitor,34.2%
C=C1[C@H](CO)[C@@H](O)C[C@@H]1n1cnc2c(=O)[nH]c(N)nc21 [PCM-0095007],BTK inhibition (%),BTK [1]; [4],-4.7%
CC(=O)OC(C)(C)/C=C/C(=O)[C@](C)(O)[C@H]1[C@H](O)C[C@@]2(C)[C@@H]3CC=C4[C@@H](C[C@H](O)C(=O)C4(C)C)[C@]3(C)C(=O)C[C@]12C [PCM-0214542],BTK inhibition (%),BTK [1]; 10 µM; inhibitor,-10%
COC(=O)c1ccccc1C(=O)OC [PCM-0216149],BTK inhibition (%),BTK [1]; [3],-9.3%
O=C(O)C1C2CCC(O2)C1C(=O)O (centres unmarked) [PCM-0215947],BTK inhibition (%),BTK [1]; [3],-7.7%
COc1ccc2c(c1)c(CC(=O)O)c(C)n2C(=O)c1ccc(Cl)cc1 [PCM-0065532],BTK inhibition (%),BTK [1]; [4],5.5%
C[C@H]1CC[C@@H]2N(C1)C[C@H]1[C@@H]3C[C@H]4[C@@H](C[C@H](O)[C@H]5C[C@@H](O)CC[C@@]54C)[C@@H]3CC[C@@H]1[C@]2(C)O [PCM-0216522],BTK inhibition (%),BTK [1]; 10 µM; inhibitor,-15.4%
COC1=C[C@@H]2[C@@H]3Cc4ccc(OC)c(O)c4[C@]2(CCN3C)CC1=O [PCM-0214970],BTK inhibition (%),"BTK [1]; 10 µM, inhibitor",0%
Cc1cc(NS(=O)(=O)c2ccc(N)cc2)no1 [PCM-0215124],BTK inhibition (%),BTK [1]; [4],7%
CO[C@H]1/C=C/O[C@@]2(C)Oc3c(C)c(O)c4c(O)c(c(/C=N/N5CCN(C)CC5)c(O)c4c3C2=O)NC(=O)/C(C)=C\C=C\[C@H](C)[C@H](O)[C@@H](C)[C@@H](O)[C@@H](C)[C@H](OC(C)=O)[C@@H]1C [PCM-0086069],BTK inhibition (%),BTK [1]; [3],32.7%
CC(C)[N+]1(C)[C@@H]2CC[C@H]1CC(OC(=O)C(CO)c1ccccc1)C2 (some centres unmarked) [PCM-0214646],BTK inhibition (%),BTK [1]; [3],-24.9%
CO/N=C(\C(=O)N[C@@H]1C(=O)N2C(C(=O)O)=C(CSC(=O)c3ccco3)CS[C@H]12)c1csc(N)n1 [PCM-0214692],BTK inhibition (%),BTK [1]; [4],0%
COc1cc(NS(=O)(=O)c2ccc(N)cc2)nc(OC)n1 [PCM-0216005],BTK inhibition (%),BTK [1]; [4],-11.6%
CN(C)C(=O)Oc1cccc([N+](C)(C)C)c1 [PCM-0064762],BTK inhibition (%),BTK [1]; [3],-7.7%
CC(=O)N1C[C@H](O)C[C@H]1C(=O)O [PCM-0215090],BTK inhibition (%),BTK [1]; [3],8.6%
c1cc2c(cc1[C@H]1OC[C@H]3[C@@H]1CO[C@@H]3c1ccc3c(c1)OCO3)OCO2 [PCM-0094427],BTK inhibition (%),BTK [1]; [3],-24.1%
c1cc2c(cc1[C@H]1OC[C@H]3[C@@H]1CO[C@H]3c1ccc3c(c1)OCO3)OCO2 [PCM-0216178],BTK inhibition (%),BTK [1]; [3],29.3%
c1c2c(cc3c1OCO3)-c1cc3ccc4c(c3c[n+]1CC2)OCO4 [PCM-0216022],BTK inhibition (%),BTK [1]; [3],-46.8%
N[C@@H](C=O)[C@@H](O)[C@H](O)[C@H](O)CO [PCM-0214928],BTK inhibition (%),BTK [1]; [4],-6.2%
O=c1ccc2cc3ccoc3c(O)c2o1 [PCM-0216446],BTK inhibition (%),BTK [1]; [3],-6.2%
COc1ccc(C=O)cc1 [PCM-0216000],BTK inhibition (%),BTK [1]; [3],17%
O=c1ccc2cc(O[C@@H]3O[C@H](CO)[C@@H](O)[C@H](O)[C@H]3O)c(O)cc2o1 [PCM-0091361],BTK inhibition (%),BTK [1]; [3],0%
O=C1O[C@H]([C@@H](O)CO)C(O)=C1O [PCM-0215215],BTK inhibition (%),BTK [1]; [4],-6.8%
CCCC(CCC)C(=O)O [PCM-0215159],BTK inhibition (%),BTK [1]; [4],6.9%
C[C@H]1CC[C@]2(NC1)O[C@H]1C[C@H]3[C@@H]4CC[C@H]5C[C@@H](O)CC[C@]5(C)[C@H]4CC[C@]3(C)[C@H]1[C@@H]2C [PCM-0216325],BTK inhibition (%),BTK [1]; [3],13.9%
CC(C)C[C@H](NC(=O)CNC(=O)c1cc(Cl)ccc1Cl)B(O)O [PCM-0095224],inhibition at 10 µM,BTK [2]; [5],5.4%
CC1(C)CC[C@]2(C(=O)O)CC[C@]3(C)C(=CC[C@@H]4[C@@]5(C)C[C@@H](O)[C@H](O)C(C)(C)[C@@H]5CC[C@]43C)[C@@H]2C1 [PCM-0216611],inhibition at 10 µM,BTK [2]; [5],20.1%
O=C(O)c1cccnc1 [PCM-0086368],inhibition at 10 µM,BTK [2]; [5],3.1%
CC1=C(/C=C/C(C)=C/C=C/C(C)=C/C=C/C=C(C)/C=C/C=C(C)/C=C/C2=C(C)CCCC2(C)C)C(C)(C)CCC1 [PCM-0090171],inhibition at 10 µM,BTK [2]; [5],24.7%
O=C(NO)c1ccc(CC(=O)N(CCO)c2ccccc2)cc1 [PCM-0215415],inhibition at 10 µM,BTK [2]; [5],10.8%
CCCc1ncc(C[n+]2ccccc2C)c(N)n1 [PCM-0085765],inhibition at 10 µM,BTK [2]; [5],-8.5%
O=C1NC(=O)/C(=C/c2ccc3c(c2)OC(F)(F)O3)S1 [PCM-0095357],inhibition at 10 µM,BTK [2]; [5],9.7%
O=C(Nc1ccc(Br)cc1)c1ccc(Br)c(S(=O)(=O)NCc2ccccc2)c1 [PCM-0215665],inhibition at 10 µM,BTK [2]; [5],100%
O=c1ccn([C@@H]2O[C@H](CO)[C@@H](O)[C@H]2O)c(=O)[nH]1 [PCM-0091168],inhibition at 10 µM,BTK [2]; [5],7.8%
O=C(O)CCCc1c[nH]c2ccccc12 [PCM-0094810],inhibition at 10 µM,BTK [2]; [5],-12.5%
NCCCCCNCC12CC3CC(CC(C3)C1)C2 [PCM-0095503],inhibition at 10 µM,BTK [2]; [5],-19.5%
COc1cc2ncnc(Nc3ccc(F)c(Cl)c3)c2cc1O [PCM-0216130],inhibition at 10 µM,BTK [2]; [5],5.4%
CN(C)CCN1C(=O)c2cccc3cc(N)cc(c23)C1=O [PCM-0095001],inhibition at 10 µM,BTK [2]; [5],0.8%
COc1ccc(/C=C/c2cc(O)cc(O)c2)cc1O [PCM-0216438],inhibition at 10 µM,BTK [2]; [5],14.7%
C[C@@H]1CCCC2=CC(=O)[C@@H]3[C@@H](C3(C)C)[C@]21C [PCM-0216523],inhibition at 10 µM,BTK [2]; [5],-8.5%
C[C@@H]1CC[C@@]2(NC1)O[C@H]1C[C@H]3[C@@H]4CC=C5C[C@@H](O[C@@H]6O[C@H](CO)[C@@H](O[C@@H]7O[C@@H](C)[C@H](O)[C@@H](O)[C@H]7O)[C@H](O)[C@H]6O)CC[C@]5(C)[C@H]4CC[C@]3(C)[C@H]1[C@@H]2C [PCM-0216606],inhibition at 10 µM,BTK [2]; read-out: BTK inhibition (%),-6.9%
COC(=O)N(C)c1c(N)nc(-c2nn(Cc3ccccc3F)c3ncccc23)nc1N [PCM-0215574],inhibition at 10 µM,BTK [2]; [5],-25.5%
Cc1cc2nc3c(=O)[nH]c(=O)nc-3n(C[C@H](O)[C@H](O)[C@H](O)COP(=O)(O)O)c2cc1C [PCM-0215946],inhibition at 10 µM,BTK [2]; [5],3.4%
OCCOc1ccc(/C(=C(/CCCl)c2ccccc2)c2ccccc2)cc1 [PCM-0214796],inhibition at 10 µM,BTK [2]; [5],73.9%
CN1CCN(C(=O)c2ccc(-c3ccc4c(C=O)c(O)ccc4c3)s2)CC1 [PCM-0215885],inhibition at 10 µM,BTK [2]; [5],77.2%
COc1ccc(CCCOC(Cn2ccnc2)c2ccc(OC)cc2)cc1 (centres unmarked) [PCM-0215655],inhibition at 10 µM,BTK [2]; [5],-8.5%
Nc1nc2ccc(OC(F)(F)F)cc2s1 [PCM-0065440],inhibition at 10 µM,BTK [2]; [5],-10.1%
O=c1[nH]c(=O)n(C2CCCO2)cc1F (centres unmarked) [PCM-0094899],inhibition at 10 µM,BTK [2]; [5],-3.1%
COc1cc2oc(-c3ccccc3)cc(=O)c2c(OC)c1OC [PCM-0216616],inhibition at 10 µM,BTK [2]; [5],-34%
C[C@@H]1CC[C@@]2(OC1)O[C@H]1C[C@H]3[C@@H]4CC=C5C[C@@H](O[C@@H]6O[C@H](CO)[C@@H](O)[C@H](O[C@@H]7O[C@H](CO)[C@@H](O)[C@H](O)[C@H]7O)[C@H]6O[C@@H]6O[C@@H](C)[C@H](O)[C@@H](O)[C@H]6O)CC[C@]5(C)[C@H]4CC[C@]3(C)[C@H]1[C@@H]2C [PCM-0215006],inhibition at 10 µM,BTK [2]; [5],-3.1%
O=C(Nc1ccccc1-c1cn2c(CN3CCNCC3)csc2n1)c1cnc2ccccc2n1 [PCM-0094935],inhibition at 10 µM,BTK [2]; [5],10.3%
O=C(Nc1ccccc1)Nc1ccc(-c2ccc(C(=O)[C@@H]3CCC[C@H]3C(=O)O)cc2)cc1 [PCM-0095351],inhibition at 10 µM,BTK [2]; [5],22.6%
NC(=O)OCC(COC(N)=O)c1ccccc1 [PCM-0065204],inhibition at 10 µM,BTK [2]; [5],3.1%
OC[C@@H](O)[C@@H](O)[C@@H](O)[C@@H](O)CO [PCM-0216285],inhibition at 10 µM,BTK [2]; [5],-17%
O=c1cc(-c2ccc(O)c(O)c2)oc2cc(O)cc(O)c12 [PCM-0086559],inhibition at 10 µM,BTK [2]; [5],84.8%
